# From ChEMBL document CHEMBL1201862, “PubChem BioAssay data set” (2004)
#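 Growth conditions: 96-well plates. Treatment: test compound, 48 hours, 5 concentrations. Analysis: linear interpolation between bracketing concentrations; unreached endpoints set to highest concentration. GI50: concentration for 50% inhibition of growth.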 Calls of active or inactive are those of the source. Cut-off read from the data, not from the text of the source: active = GI50 up to about 1.1 µM and inactive = higher.
# Tests used:
# Assay in all cases: NCI-60 cell line screen, 48 h
# UACC-257 = system: UACC-257
# UACC-62 = system: UACC-62
# OVCAR-8 = system: OVCAR-8
# HT-29 = system: HT-29
# SK-MEL-28 = system: SK-MEL-28
# 786-0 = system: 786-0
# SK-MEL-2 = system: SK-MEL-2
# OVCAR-5 = system: OVCAR-5
# T47D = system: T47D
# HOP-92 = system: HOP-92
# DU-145 = system: DU-145
# MDA-MB-435 = system: MDA-MB-435
# SNB-75 = system: SNB-75
# SF-268 = system: SF-268
# RPMI-8226 = system: RPMI-8226
# K562 = system: K562
# SR = system: SR
# COLO 205 = system: COLO 205
# MDA-MB-231 = system: MDA-MB-231
# NCI-H522 = system: NCI-H522
Structure (SMILES),GI50 (UACC-257),GI50 (UACC-62),GI50 (OVCAR-8),GI50 (HT-29),GI50 (SK-MEL-28),GI50 (786-0),GI50 (SK-MEL-2),GI50 (OVCAR-5),GI50 (T47D),GI50 (HOP-92),GI50 (DU-145),GI50 (MDA-MB-435),GI50 (SNB-75),GI50 (SF-268),GI50 (RPMI-8226),GI50 (K562),GI50 (SR),GI50 (COLO 205),GI50 (MDA-MB-231),GI50 (NCI-H522)
c1ccc([P+](CCN2Cc3ccccc3C2)(c2ccccc2)c2ccccc2)cc1,2.35 µM (inactive),2.85 µM (inactive),2.32 µM (inactive),3.52 µM (inactive),2.74 µM (inactive),8.17 µM (inactive),2.27 µM (inactive),16.6 µM (inactive),2.4 µM (inactive),1.08 µM (active),5.87 µM (inactive),3.58 µM (inactive),2.12 µM (inactive),5.77 µM (inactive),0.051 µM (active),2.79 µM (inactive),4.33 µM (inactive),1.56 µM (inactive),3.94 µM (inactive),2.73 µM (inactive)
CCOc1cc(CCNC)c2c(ccc3ccc(OC)c(O)c32)c1OC,13.1 µM (inactive),15.8 µM (inactive),13.6 µM (inactive),14.8 µM (inactive),17.9 µM (inactive),17.5 µM (inactive),14.2 µM (inactive),14.5 µM (inactive),21.7 µM (inactive),12.1 µM (inactive),15.2 µM (inactive),12.6 µM (inactive),16 µM (inactive),18 µM (inactive),12.4 µM (inactive),17 µM (inactive),4.44 µM (inactive),19 µM (inactive),13.4 µM (inactive),5.14 µM (inactive)
COC(=O)c1ccc(C)cc1C1CN=NC12Cc1cccc(C)c1C2=O (stereo not given),29.7 µM (inactive),21 µM (inactive),21.1 µM (inactive),71.6 µM (inactive),30.7 µM (inactive),> 100 µM (inactive),23.8 µM (inactive),> 100 µM (inactive),24.9 µM (inactive),36.9 µM (inactive),65.2 µM (inactive),18.9 µM (inactive),34.2 µM (inactive),57.1 µM (inactive),20.8 µM (inactive),26.7 µM (inactive),82.8 µM (inactive),30.5 µM (inactive),> 100 µM (inactive),28.1 µM (inactive)
Cc1cc(C(O)CNC(C)CCn2cnc3c2c(=O)n(C)c(=O)n3C)ccc1O (stereo not given),> 100 µM (inactive),> 100 µM (inactive),> 100 µM (inactive),> 100 µM (inactive),> 100 µM (inactive),> 100 µM (inactive),> 100 µM (inactive),> 100 µM (inactive),> 100 µM (inactive),> 100 µM (inactive),> 100 µM (inactive),> 100 µM (inactive),> 100 µM (inactive),> 100 µM (inactive),> 100 µM (inactive),> 100 µM (inactive),> 100 µM (inactive),> 100 µM (inactive),> 100 µM (inactive),> 100 µM (inactive)
COC(=O)C1=C(OC(=O)/C(=C/c2ccccc2)c2ccc(Cl)cc2)C(C(=O)OC)[C@@]2(O)[C@@H](C(=O)OC)[C@H](C)C[C@@H]1[C@@H]2C(=O)OC (stereo not given in full),> 100 µM (inactive),> 100 µM (inactive),> 100 µM (inactive),> 100 µM (inactive),> 100 µM (inactive),> 100 µM (inactive),> 100 µM (inactive),> 100 µM (inactive),> 100 µM (inactive),29.1 µM (inactive),> 100 µM (inactive),> 100 µM (inactive),> 100 µM (inactive),> 100 µM (inactive),> 100 µM (inactive),2.37 µM (inactive),> 100 µM (inactive),> 100 µM (inactive),> 100 µM (inactive),> 100 µM (inactive)
CCN(CC)CCNc1ccc2nnn3c4ccc(O)cc4c(=O)c1c23,12.2 µM (inactive),8.39 µM (inactive),1.49 µM (inactive),3.33 µM (inactive),11.4 µM (inactive),1.24 µM (inactive),11.3 µM (inactive),8.02 µM (inactive),18.5 µM (inactive),4.35 µM (inactive),14.3 µM (inactive),3.56 µM (inactive),2.07 µM (inactive),6.49 µM (inactive),2 µM (inactive),1.62 µM (inactive),0.06 µM (active),1.84 µM (inactive),0.0361 µM (active),6.82 µM (inactive)
COc1ccc(-c2oc3cc(OC)c(OC)c(O)c3c(=O)c2OC)cc1,> 100 µM (inactive),21.4 µM (inactive),43.2 µM (inactive),> 100 µM (inactive),> 100 µM (inactive),21.9 µM (inactive),30.6 µM (inactive),> 100 µM (inactive),28.4 µM (inactive),14.5 µM (inactive),58.7 µM (inactive),> 100 µM (inactive),15.4 µM (inactive),24.5 µM (inactive),> 100 µM (inactive),> 100 µM (inactive),> 100 µM (inactive),> 100 µM (inactive),17 µM (inactive),33.7 µM (inactive)
Cn1c(=O)nc2n(-c3ccc(Cl)cc3)c3cc(Cl)ccc3nc-2c1=O,1.82 µM (inactive),1.88 µM (inactive),2.72 µM (inactive),2.62 µM (inactive),3.2 µM (inactive),10.5 µM (inactive),2.55 µM (inactive),15 µM (inactive),0.92 µM (active),7.31 µM (inactive),15.6 µM (inactive),1.68 µM (inactive),7.14 µM (inactive),3.08 µM (inactive),3.79 µM (inactive),2.37 µM (inactive),3.93 µM (inactive),2.11 µM (inactive),3.17 µM (inactive),2.99 µM (inactive)
O=C(CCCl)NN=C1NCCN1,> 100 µM (inactive),> 100 µM (inactive),> 100 µM (inactive),> 100 µM (inactive),> 100 µM (inactive),> 100 µM (inactive),> 100 µM (inactive),> 100 µM (inactive),> 100 µM (inactive),> 100 µM (inactive),> 100 µM (inactive),> 100 µM (inactive),> 100 µM (inactive),> 100 µM (inactive),> 100 µM (inactive),> 100 µM (inactive),> 100 µM (inactive),> 100 µM (inactive),> 100 µM (inactive),> 100 µM (inactive)
O=C(/C=C/c1cccs1)c1cccc(C(=O)/C=C/c2cccs2)n1,> 100 µM (inactive),> 31.2 µM (inactive),3.68 µM (inactive),6.21 µM (inactive),53.2 µM (inactive),6.81 µM (inactive),> 100 µM (inactive),> 73.1 µM (inactive),19.4 µM (inactive),> 100 µM (inactive),> 81.3 µM (inactive),52.7 µM (inactive),65.9 µM (inactive),21.5 µM (inactive),2.97 µM (inactive),3.93 µM (inactive),2.26 µM (inactive),> 100 µM (inactive),63.2 µM (inactive),22.1 µM (inactive)
CCC(=O)O[C@H]1CC[C@H]2[C@@H]3CCC4=C/C(=N/OC(=O)c5cccc6cc7ccccc7nc56)CC[C@]4(C)[C@H]3CC[C@]12C,63.4 µM (inactive),27.8 µM (inactive),42.3 µM (inactive),42.9 µM (inactive),90.2 µM (inactive),> 100 µM (inactive),55.2 µM (inactive),> 100 µM (inactive),21.9 µM (inactive),> 100 µM (inactive),> 100 µM (inactive),38.8 µM (inactive),83.8 µM (inactive),> 100 µM (inactive),50.4 µM (inactive),> 100 µM (inactive),67.9 µM (inactive),41 µM (inactive),> 100 µM (inactive),41.4 µM (inactive)
O=C(NNC(=S)Nc1ccccc1)C12CC3CC(CC(C3)C1)C2,31.7 µM (inactive),13.7 µM (inactive),21.7 µM (inactive),21.3 µM (inactive),21.9 µM (inactive),19.3 µM (inactive),22.1 µM (inactive),59.4 µM (inactive),27.6 µM (inactive),30.1 µM (inactive),28.6 µM (inactive),23.7 µM (inactive),29.4 µM (inactive),17.1 µM (inactive),17.3 µM (inactive),12.7 µM (inactive),0.252 µM (active),20.7 µM (inactive),40 µM (inactive),28.1 µM (inactive)
COC1C(N)C(OC2C(Oc3cccc4c(O)c5c(=O)oc6ccc(C)c7c(=O)oc(c34)c5c67)OC(C)C(O)C2(C)O)OC(C)C1O (stereo not given),0.0658 µM (active),0.0208 µM (active),0.0154 µM (active),< 0.0168 µM (active),0.029 µM (active),< 0.0123 µM (active),0.0108 µM (active),0.27 µM (active),0.0266 µM (active),0.0231 µM (active),0.187 µM (active),0.0313 µM (active),0.0313 µM (active),< 0.0119 µM (active),< 0.01 µM (active),< 0.0154 µM (active),< 0.215 µM (active),0.0456 µM (active),0.109 µM (active),< 0.01 µM (active)
O=C1C=C2C(=NC34CCCCC3C(c3ccccc3)C3=C(c5ccccc5CC3)N24)c2ccccc21 (stereo not given),> 10 µM (inactive),> 10 µM (inactive),> 10 µM (inactive),> 10 µM (inactive),> 10 µM (inactive),> 10 µM (inactive),> 10 µM (inactive),> 10 µM (inactive),> 10 µM (inactive),> 10 µM (inactive),> 10 µM (inactive),> 10 µM (inactive),8.95 µM (inactive),> 10 µM (inactive),> 10 µM (inactive),> 10 µM (inactive),8.22 µM (inactive),> 10 µM (inactive),> 10 µM (inactive),> 10 µM (inactive)
